Reference: patent US20250092065A1, “2-(INDAZOL-5-YL)-6-(PIPERIDIN-4-YL)-1,7-NAPHTHYRIDINE DERIVATIVES AND RELATED COMPOUNDS AS MODULATORS FOR SPLICING NUCLEIC ACIDS AND FOR THE TREATMENT OF PROLIFERATIVE DISEASES” (REMIX THERAPEUTICS INC., priority 2022, published 2025)
Structures can show the parent of a compound that is named as a salt. Where two headings read alike, the source gives them in different places.

Key:
[1] = system: HTT; assay: HiBiT protein abundance assay, HTT (K562 HiBiT knock-in); type: cell-based, human; conditions: HiBiT knock-in K562 cells, 24 hours, top dose 10 μM
Method in brief: (§1)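 Steps: seed HiBiT knock-in K562 cells; add compound in 10-point 3-fold series from 10 μM final; incubate 24 h, 37 °C; add lytic HiBiT reagent, shake 5 min, wait 10 min; read luminescence. Normalize to parental K562 and DMSO controls, fit 4PL, take IC50.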

[2] = system: HTT mRNA; assay: RT-qPCR splicing assay, HTT mRNA canonical (CJ) and alternative (AJ) junction; type: cell-based, human; conditions: Homo sapiens; for AC50: HTT alternative junction mRNA, read-out: HTT AJ (increase in AJ mRNA, AC50)
Method in brief: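 Junction-specific RT-qPCR read-out: CJ and AJ isoform levels, housekeeper-normalized (GAPDH/GUSB/PPIA), ΔΔCt vs DMSO, converted to RQ then % response. Cells: A673 (DMEM/10% FBS, adhered 24 h) or K562 (IMDM/10% FBS). Compound 11-pt 3-fold, top 10 uM, 24 h, 37 °C.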

[3] = system: MYB; assay: HiBiT protein abundance assay, MYB (K562 HiBiT knock-in); type: cell-based, human; conditions: HiBiT knock-in K562 cells, 24 hours, top dose 10 μM
Method in brief: as §1

[4] = system: K562 cells; assay: Cell Titer Glo 2.0 cell viability (toxicity) assay, K562; conditions: 500 cells/well, 72 hours
[5] = system: Target C; assay: HiBiT protein abundance assay, Target C (K562 HiBiT knock-in); type: cell-based, human; conditions: HiBiT knock-in K562 cells, 24 hours, top dose 10 μM
Method in brief: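 K562 HiBiT knock-in cells (10000/well) were treated 24 h at 37° C with a 10-point 3-fold dilution series (top 10 μM final, ≤0.25% DMSO). HiBiT luminescence was read after lytic LgBiT detection. Percent response used unmodified K562 and DMSO-treated knock-in controls, and IC50 came from a four-parameter fit at 50% of untreated.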

[6] = HTT canonical junction mRNA, RT-qPCR, read-out: HTT CJ (decrease in CJ mRNA levels, IC50)
[7] = canonical junction qPCR panel, Table 4, read-out: HTT IC50 (decrease in CJ mRNA levels)

SMILES | IC50 [1] | AC50 ([2]; RT-qPCR) | IC50 [2, 6] | IC50 [2, 7] | IC50 [3] | Effect of Exemplary Compounds on Cell Viability, K562 [4] | IC50 [5]
CNC(=O)c1nc(-c2cc3cn(C)nc3c(C)c2O)nc2ccc(N3C[C@@H](C)N[C@@H](C)C3)nc12 [Compound 534, 6-[(3R,5S)-3,5-dimethylpiperazin-1-yl]-2-(6-hydroxy-2,7-dimethylindazol-5-yl)-N-methylpyrido[3,2-d]pyrimidine-4-carboxamide] | 1000 to 10000 nM | > 10000 nM | > 10000 nM | > 10000 nM | 100 to 1000 nM | B (B represents 100-1000 nM) | 1000 to 10000 nM
CCNC(=O)c1nc(-c2cc3cn(C)nc3c(C)c2O)nc2ccc(N3C[C@@H](C)N[C@@H](C)C3)cc12 [Compound 535, 6-[(3R,5S)-3,5-dimethylpiperazin-1-yl]-N-ethyl-2-(6-hydroxy-2,7-dimethylindazol-5-yl)quinazoline-4-carboxamide] | < 100 nM | 100 to 1000 nM | < 100 nM | < 100 nM | < 100 nM | A (A represents <100 nM) | 100 to 1000 nM
CNC(=O)c1nc(-c2cc3cn(C)nc3c(C)c2O)nc2ccc(N3CC[C@@H](NC)C3)cc12 [Compound 536, 2-(6-hydroxy-2,7-dimethylindazol-5-yl)-N-methyl-6-[(3R)-3-(methylamino)pyrrolidin-1-yl]quinazoline-4-carboxamide] | < 100 nM | < 100 nM | < 100 nM | < 100 nM | < 100 nM | A (A represents <100 nM) | < 100 nM
CNC(=O)c1nc(-c2cc3cn(C)nc3c(C)c2O)nc2ccc(N3CC[C@H](NC)C3)cc12 [Compound 537, 2-(6-hydroxy-2,7-dimethylindazol-5-yl)-N-methyl-6-[(3S)-3-(methylamino)pyrrolidin-1-yl]quinazoline-4-carboxamide] | < 100 nM | 100 to 1000 nM | < 100 nM | < 100 nM | < 100 nM | A (A represents <100 nM) | < 100 nM
Cc1c(O)c(-c2nc(-c3c[nH]nn3)c3cc(N4CCNCC4)ccc3n2)cc2cn(C)nc12 [Compound 538, 2,7-dimethyl-5-[6-(piperazin-1-yl)-4-(1H-1,2,3-triazol-4-yl)quinazolin-2-yl]indazol-6-ol hydrochloride] | 1000 to 10000 nM | 1000 to 10000 nM | 1000 to 10000 nM | 1000 to 10000 nM | 1000 to 10000 nM | C (C represents 1000-9999 nM) | 1000 to 10000 nM
Cc1c(O)c(-c2nc(C(=O)NC(C)C)c3cc(N4C[C@@H](C)N[C@@H](C)C4)ccc3n2)cc2cn(C)nc12 [Compound 539, 6-[(3R,5S)-3,5-dimethylpiperazin-1-yl]-2-(6-hydroxy-2,7-dimethylindazol-5-yl)-N-isopropylquinazoline-4-carboxamide] | < 100 nM | < 100 nM | < 100 nM | < 100 nM | < 100 nM | A (A represents <100 nM) | < 100 nM
Cc1c(O)c(-c2nc(C(=O)NC3CCC3)c3cc(N4C[C@@H](C)N[C@@H](C)C4)ccc3n2)cc2cn(C)nc12 [Compound 540] | 100 to 1000 nM | 100 to 1000 nM | 1000 to 10000 nM | 1000 to 10000 nM | < 100 nM | A (A represents <100 nM) | 100 to 1000 nM
Cc1c(O)c(-c2nc(-c3nn[nH]n3)c3cc(N4CCNCC4)ccc3n2)cc2cn(C)nc12 [Compound 541, 2,7-dimethyl-5-[6-(piperazin-1-yl)-4-(2H-1,2,3,4-tetrazol-5-yl)quinazolin-2-yl]indazol-6-ol] | > 10000 nM | 1000 to 10000 nM | 1000 to 10000 nM | 1000 to 10000 nM | > 10000 nM | C (C represents 1000-9999 nM) | > 10000 nM
C[C@@H]1CN(c2ccc3nc(-c4cc5cn(C)nc5c(F)c4O)nc(C4CC4)c3c2)C[C@H](C)N1 [Compound 542, 5-{4-cyclopropyl-6-[(3R,5S)-3,5-dimethylpiperazin-1-yl]quinazolin-2-yl}-7-fluoro-2-methylindazol-6-ol] | 1000 to 10000 nM | 1000 to 10000 nM | 1000 to 10000 nM | 1000 to 10000 nM | < 100 nM | B (B represents 100-1000 nM) | 100 to 1000 nM
CN[C@@H]1CCN(c2ccc3nc(-c4cc5cn(C)nc5c(F)c4O)nc(C4CC4)c3c2)C1 [Compound 543, 5-{4-cyclopropyl-6-[(3R)-3-(methylamino)pyrrolidin-1-yl]quinazolin-2-yl}-7-fluoro-2-methylindazol-6-ol] | < 100 nM | < 100 nM | < 100 nM | < 100 nM | < 100 nM | A (A represents <100 nM) | 100 to 1000 nM
Cc1cn2cc(-c3ccc4cc(N5C[C@@H](C)N[C@@H](C)C5)cc(F)c4n3)cc(F)c2n1 [Compound 544, 6-[(3R,5S)-3,5-dimethylpiperazin-1-yl]-8-fluoro-2-{8-fluoro-2-methylimidazo[1,2-a]pyridin-6-yl}quinoline] | 100 to 1000 nM | 100 to 1000 nM | 100 to 1000 nM | 100 to 1000 nM | 100 to 1000 nM | B (B represents 100-1000 nM) | 100 to 1000 nM
CNC(=O)c1nc(-c2cc3cn(C)nc3c(C)c2O)nc2ccc(N3C[C@H](C)N[C@@H](C)C3)cc12 [Compound 652, 6-[(3S,5S)-3,5-dimethylpiperazin-1-yl]-2-(6-hydroxy-2,7-dimethylindazol-5-yl)-N-methylquinazoline-4-carboxamide] | < 100 nM | 100 to 1000 nM | 100 to 1000 nM | 100 to 1000 nM | < 100 nM | A (A represents <100 nM) | 100 to 1000 nM
Cc1c(O)c(-c2ncc3cc(N4C[C@H](C)N[C@@H](C)C4)ccc3n2)cc2cn(C)nc12 [Compound 660, 5-{6-[(3S,5S)-3,5-dimethylpiperazin-1-yl]quinazolin-2-yl}-2,7-dimethylindazol-6-ol] | 100 to 1000 nM | 100 to 1000 nM | 100 to 1000 nM | 100 to 1000 nM | < 100 nM | A (A represents <100 nM) | 100 to 1000 nM
CNC(=O)c1nc(-c2cc3cn(C)nc3c(C)c2O)nc2ccc(N3CCC(N4CCC4)CC3)cc12 [Compound 706] | 100 to 1000 nM | 1000 to 10000 nM | 100 to 1000 nM | 100 to 1000 nM | < 100 nM | A (A represents <100 nM) | 100 to 1000 nM
C[C@@H]1CN(c2ccc3nc(-c4cc5cn(C)nc5c(F)c4O)nc(C#N)c3c2)C[C@H](C)N1 [Compound 707, 6-[(3R,5S)-3,5-dimethylpiperazin-1-yl]-2-(7-fluoro-6-hydroxy-2-methylindazol-5-yl) quinazoline-4-carbonitrile] | 100 to 1000 nM | 100 to 1000 nM | 100 to 1000 nM | 100 to 1000 nM | < 100 nM | A (A represents <100 nM) | 100 to 1000 nM
